Assay results reported in patent US10138292B2, “Cell culture medium” (BIOLAMINA AB, priority 2010, dated 2018).

What was measured:
hES cells [1] = test: Inhibition of survival assay on LN-521; assay type: cell-based, human; conditions: medium contained bFGF
Method: (§1) The survival assay was performed as described for the cell adhesion assay above, except that the cells were left in the cell incubator for 24 hours. For inhibition of survival assay, the cells were kept in a medium with function blocking antibodies at the concentrations recommended by the manufacturer or pathway inhibitors at concentrations indicated in the text for 30 minutes, and then plated on the coated dishes. All the experiments were performed in quadruplicate.

[2] = system: PI3K/Akt and MEK1/Erk pathways; test: Western blot with antibodies to phospho-Akt / phospho-Erk; assay type: cell-based, human; conditions: cells collected one hour after plating on LN-521
Method: HS 181 cells were trypsinized into single cell suspension as described above. For inhibition experiments, the cells were kept in O3 medium with blocking antibodies or pathway inhibitors for 30 minutes and then 450K cells were plated on 35 mm dishes precoated with the appropriate matrix coating. For other experiments, same number of cells was plated directly after trypsinization. In all cases the cells were allowed to spread for 1 hour at 37° C., 5% CO2. After two washings in ice-cold PBS, the plates with cells were snap frozen in liquid nitrogen and stored at −80° C. To prepare samples for western blots and ELISA, the plates were slowly thawed and kept on ice with 100-150 μl of lysis buffer (50 mM Tris-HCl, pH7.5, 150 mM NaCl, 0.5% deoxycholate, 0.5% SDS, 1% Triton X-100, 1% Igepal, Complete™ (Roche) and Phospho-Stop™ (Roche)) on top. Then, the cells were scraped, pipetted and sheared through a 27G ¾″ needle. After that, the cell pellets were clarified by centrifugation at 16,100 rcf for 15 minutes at 4° C. For western blots, 4-12% gradient gels were used for SDS electrophoresis and the proteins were transferred to PVDF membranes. The membrane was hybridized with the antibody of interest according to the manufacturer's instructions. […] For the densitometry analysis the films were scanned at 2,400 dpi and analyzed by the Chemilmager5500 program (1D-Multi Line densitometry mode). […]

human ES cells [3] = test: Cell adhesion / single cell survival 1 day after plating (Example 1); assay type: cell-based; conditions: for cells remaining attached / surviving 24 hours after plating: completely dissociated H5181 cells, O3 medium without any additives, no ROCK inhibitor
Method: (§2) Ninety-six-well tissue cell culture plates were coated overnight at 4° C. with sterile solutions of the ECM proteins mouse LN-111 (Invitrogen), human recombinant LN-511, and human recombinant LN-521, all at a concentration of 30 μg/ml (5 μg/cm^2). For control cells, BD Matrigel™ hESC qualified (BD Biosciences) was used according to the manufacturer's instructions.
(§3) The assay was performed as described (Extracellular Matrix Protocols, 2000). Briefly, 96-well plates were coated by extracellular matrix proteins as described above and blocked by O3 medium containing bovine serum albumin. The ES cells were plated at a cell density of 600 cell/mm^2 upon extracellular matrix-coated plates and were left to adhere for either 1 hour or 1 day at the cell incubator. Non-adherent cells were washed away, and adherent cells were fixed for 20 min by 5% glutaraldehyde, stained by 0.1% Crystal Violet.

hES cells [4] = test: Cell survival assay, 24 hours (Example 2); assay type: cell-based, human; conditions: for survival after 24 hours: dissociated hES cells; for survival 24 hours after plating: single cell suspension, O3 medium, absence of ROCK inhibitor
Method: as §1
Pluripotent hES cells express α1, α5, β1, β2 and γ1 laminin chains. To compare the adhesion and clonal survival of hES cells plated from single cell suspension to different coating substrata, hES cells growing as monolayers on LN-511 or as clusters on a feeder layer were trypsinized into single cell suspension in O3 medium and plated on cell culture dishes coated with Matrigel, LN-111, LN-511, LN-521 or a mixture of LN-511 and LN-521, in the absence or presence of a ROCK inhibitor (Y-27632) and analyzed after 24 hours.

human ES cells [5] = test: Cell adhesion assay, 1 hour (Example 1); assay type: cell-based; conditions: O3 medium without any additives, without Y-27632
Method: as §2, §3

[6] = system: human embryonic stem cells; test: Survival of dissociated human embryonic stem cells one day after plating on precoated dishes; assay type: cell-based; conditions: single cell suspension, O3 medium, 30 Kcells/cm^2
Text: In other aspects, the present disclosure provides a new material, isolated laminin-521, which permits human embryonic stem cell survival after dissociation into single cell suspension. The stem cells were dissociated into single cell suspension by Trypsin-EDTA treatment, pelleted by centrifugation, resuspended into O3 medium, filtered through a 40 μm sieve, and plated at a density of 30 Kcells/cm^2 on cell culture dishes precoated by either isolated laminin-521, laminin-511, or Matrigel. After one day in culture, the cells plated on Matrigel died, as is known in the art.

hES cells [7] = test: Cell adhesion assay, 1 hour (Example 2); assay type: cell-based, human; conditions: not shown
Method: Tissue cell culture plates were coated overnight at 4° C. with sterile solutions of the ECM proteins, such as human recombinant LN-521, all at a concentration of 30 μg/ml (5 μg/cm^2). Control plates were coated with Matrigel according to the STEMCELL Technologies' instructions. Prior to use, dishes were pre-warmed in an incubator for one hour after which prewarmed O3 medium was added without additional washing of the dish. After applying a fresh LN-521 solution to a new dish, the remaining LN-521 solution could be used at least once more. All the adhesion, survival, and inhibition of survival experiments were carried out using fresh coating materials.
Briefly, 96-well plates were coated by extracellular matrix proteins as described above and blocked by O3 medium containing bovine serum albumin. The ES cells were plated at cell density of 50,000 cells/cm^2 onto extracellular matrix-coated plates and left to adhere for 1 hour in a cell incubator. After that the plates were washed 3 times with the medium to remove the non-adherent cells, and then the adherent cells were fixed for 20 minutes by 5% glutaraldehyde, stained by 0.1% Crystal Violet. (Kebo Lab, Spanga, Sweden, http://www.kebolab.se). After one hour and 3 washes with water, Crystal Violet was extracted with 10% acetic acid and quantified by measuring optical density at 570 nm. All the experiments were performed in quadruplicate.

[8] = system: phosphorylated myosin light chain (P-MLC); test: Western blot of phosphorylated myosin light chain; assay type: cell-based, human; conditions: one and six hours after plating
Method: HS 181 cells were trypsinized into single cell suspension as described above. For inhibition experiments, the cells were kept in O3 medium with blocking antibodies or pathway inhibitors for 30 minutes and then 450K cells were plated on 35 mm dishes precoated with the appropriate matrix coating. For other experiments, same number of cells was plated directly after trypsinization. […] After two washings in ice-cold PBS, the plates with cells were snap frozen in liquid nitrogen and stored at −80° C. To prepare samples for western blots and ELISA, the plates were slowly thawed and kept on ice with 100-150 μl of lysis buffer (50 mM Tris-HCl, pH7.5, 150 mM NaCl, 0.5% deoxycholate, 0.5% SDS, 1% Triton X-100, 1% Igepal, Complete™ (Roche) and Phospho-Stop™ (Roche)) on top. Then, the cells were scraped, pipetted and sheared through a 27G ¾″ needle. After that, the cell pellets were clarified by centrifugation at 16,100 rcf for 15 minutes at 4° C. For western blots, 4-12% gradient gels were used for SDS electrophoresis and the proteins were transferred to PVDF membranes. The membrane was hybridized with the antibody of interest according to the manufacturer's instructions. Chemoluminescent HRP-substrate from Amersham Biosciences was used for visualization. For the densitometry analysis the films were scanned at 2,400 dpi and analyzed by the Chemilmager5500 program (1D-Multi Line densitometry mode). […]

Integrin α6β1 = Integrin α6β1 (Homo sapiens, UniProt P05556+P23229); conditions: cited from earlier work
Integrin α6β1, sequence (P23229 24-1130): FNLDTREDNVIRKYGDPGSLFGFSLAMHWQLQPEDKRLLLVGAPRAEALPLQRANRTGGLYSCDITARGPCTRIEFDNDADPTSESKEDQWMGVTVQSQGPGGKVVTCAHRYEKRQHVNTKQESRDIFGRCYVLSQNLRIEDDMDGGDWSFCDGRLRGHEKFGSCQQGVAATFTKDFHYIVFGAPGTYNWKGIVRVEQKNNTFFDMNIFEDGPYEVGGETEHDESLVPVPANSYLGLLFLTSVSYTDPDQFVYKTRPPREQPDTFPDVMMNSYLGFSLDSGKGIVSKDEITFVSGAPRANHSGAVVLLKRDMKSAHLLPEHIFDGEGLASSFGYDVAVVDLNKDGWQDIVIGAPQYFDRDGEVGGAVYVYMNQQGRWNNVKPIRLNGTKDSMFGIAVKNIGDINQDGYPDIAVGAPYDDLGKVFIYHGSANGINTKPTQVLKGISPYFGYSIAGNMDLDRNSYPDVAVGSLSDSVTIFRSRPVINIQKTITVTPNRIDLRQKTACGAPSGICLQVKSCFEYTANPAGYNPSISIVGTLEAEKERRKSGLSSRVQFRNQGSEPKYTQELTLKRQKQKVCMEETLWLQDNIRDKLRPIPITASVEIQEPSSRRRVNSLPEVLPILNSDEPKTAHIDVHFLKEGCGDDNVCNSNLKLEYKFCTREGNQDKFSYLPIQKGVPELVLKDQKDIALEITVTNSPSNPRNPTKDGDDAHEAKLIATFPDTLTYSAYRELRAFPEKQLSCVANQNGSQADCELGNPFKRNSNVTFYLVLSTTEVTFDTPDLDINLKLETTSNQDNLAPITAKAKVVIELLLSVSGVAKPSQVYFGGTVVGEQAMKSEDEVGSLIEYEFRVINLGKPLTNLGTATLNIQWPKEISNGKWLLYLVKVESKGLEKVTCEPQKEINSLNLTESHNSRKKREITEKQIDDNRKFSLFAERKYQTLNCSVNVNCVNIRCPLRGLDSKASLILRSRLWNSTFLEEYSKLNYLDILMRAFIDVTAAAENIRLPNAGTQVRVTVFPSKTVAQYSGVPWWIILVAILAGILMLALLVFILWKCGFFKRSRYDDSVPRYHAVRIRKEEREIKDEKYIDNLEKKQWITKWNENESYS
Integrin α6β1, sequence (P05556 21-798): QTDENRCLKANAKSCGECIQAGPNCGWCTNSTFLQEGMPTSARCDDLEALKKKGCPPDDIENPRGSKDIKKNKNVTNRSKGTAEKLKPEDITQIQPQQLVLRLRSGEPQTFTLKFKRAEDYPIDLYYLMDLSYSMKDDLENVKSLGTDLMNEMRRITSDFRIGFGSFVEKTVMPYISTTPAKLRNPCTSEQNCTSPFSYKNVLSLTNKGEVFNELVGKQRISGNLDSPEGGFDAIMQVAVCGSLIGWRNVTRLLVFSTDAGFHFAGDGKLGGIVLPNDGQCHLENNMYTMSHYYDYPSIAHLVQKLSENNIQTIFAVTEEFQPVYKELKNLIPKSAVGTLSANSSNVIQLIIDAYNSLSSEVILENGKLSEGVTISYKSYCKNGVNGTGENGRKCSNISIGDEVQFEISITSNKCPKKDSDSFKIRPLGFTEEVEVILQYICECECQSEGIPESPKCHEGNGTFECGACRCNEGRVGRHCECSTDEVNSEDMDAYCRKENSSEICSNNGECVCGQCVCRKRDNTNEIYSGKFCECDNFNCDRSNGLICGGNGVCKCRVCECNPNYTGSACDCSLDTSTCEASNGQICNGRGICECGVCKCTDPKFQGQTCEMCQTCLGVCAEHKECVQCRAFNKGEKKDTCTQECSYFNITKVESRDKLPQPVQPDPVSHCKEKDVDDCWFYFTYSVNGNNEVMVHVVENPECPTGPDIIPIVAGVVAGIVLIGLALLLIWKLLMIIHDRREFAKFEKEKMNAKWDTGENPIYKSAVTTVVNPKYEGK

human ES cells [9] = conditions: teratomas after engraftment into SCID mice; cited from earlier work
mouse ES cells = conditions: without LIF or feeder cells; cited from earlier work
hES cells [10] = test: Clonal survival of individualized hES cells (Example 4); assay type: cell-based, human; conditions: mTeSR1 medium, 250 cells per cm^2, 5 days, alkaline phosphatase staining
Method: hES cells were plated in mTeSR1 medium on different coatings at a density of 250 cells per cm^2 and monitored after 5 days in culture using an alkaline phosphatase staining kit.
Next, combinations of laminin-521 and E-Cadherin were tested to determine whether the combinations could sustain clonal survival of the cells. Fixed amounts of laminin-521 were used for the cell culture dish coating in combination with titrated E-Cadherin.
Additional tests were performed to test the effects of various modifications to the mTeSR1 medium. A mixture of E-Cadherin to laminin-521 in a ratio of about 1:10 w/w was used to coat the plates. […] Time-lapse photography of the cells confirmed that laminin-521/E-Cadherin coatings facilitated cell survival through proliferation of the single cells, not through the aggregation of different cells.

With `COc1cccc(-c2cc(=O)c3ccccc3o2)c1N` [PD 98059] the “hES cell survival 24 hours after plating on LN-521 with pathway inhibitor” value (hES cells [1]) was “did not affect the survival that severely” and the “efficacy of inhibitor treatment by western blot” value [2] was “confirmed”.

With `C[C@@H](N)[C@H]1CC[C@H](C(=O)Nc2ccncc2)CC1` [Y-27632, reference compound] the “cells remaining attached after one day” value (human ES cells [3]; O3 medium treated with ROCK inhibitor Y-27632, 5 coatings) was “remained attached on all 5 coatings” and the “survival 24 hours after plating in the presence of ROCK inhibitor” value (hES cells [4]; Matrigel, LN-111, LN-511, LN-521 or mixture coatings) was “survived on all surfaces”.

In the case of “LN-111: mouse laminin-111 (Invitrogen), indicated as LN-111 if not otherwise stated”, the “cells remaining attached / surviving 24 hours after plating” value (human ES cells [3]) is reported as “almost no cells remained attached”, the “survival after 24 hours” value (hES cells [4]) is reported as “almost no cells had survived” and the “survival 24 hours after plating” value (hES cells [4]) is reported as “did not survive”.

In the case of “LN-121: human recombinant laminin with α1, β2 and γ1 chains from triple-transfected HEK293 cells”, the “survival 24 hours after plating” value (hES cells [4]) is reported as “failed to survive”.

For “LN-511: human recombinant laminin-511 coating protein”, the “adhesion of human ES cells at 1 hour” value (human ES cells [5]) was “roughly the same”, the “cells remaining attached / surviving 24 hours after plating” value (human ES cells [3]) was “at a less extent” and the “survival after one day in culture” value [6] was “in most cases”. For the same molecule, the “spreading of the cells after one hour compared with Matrigel or LN-111” value (hES cells [7]) was “clearly better”, the “survival after 24 hours” value (hES cells [4]) was “very few” and the “survival 24 hours after plating” value (hES cells [4]) was “did so as single cells”. The “phosphorylation of MLC compared with cells on Matrigel and LN-111” value [8] was “even higher”, the “binding affinity of integrin α6β1 compared with LN-111” value (Integrin α6β1) was “higher” and the “pluripotency of human ES cells grown over 3 months” value (human ES cells [9]) was “maintain pluripotency”. The “duration of self-renewal of mouse ES cells” value (mouse ES cells) was “over 5 months”.

With “human recombinant LN-111: human recombinant laminin with α1, β1 and γ1 chains from triple-transfected HEK293 cells” the “survival 24 hours after plating” value (hES cells [4]) was “failed to survive”.

B1: E-Cadherin: epithelial-cadherin used as cell culture dish coating (protein, UniProt P12830 155-882, looked up)
Cadherin-1: DWVIPPISCPENEKGPFPKNLVQIKSNKDKEGKVFYSITGQGADTPPVGVFIIERETGWLKVTEPLDRERIATYTLFSHAVSSNGNAVEDPMEILITVTDQNDNKPEFTQEVFKGSVMEGALPGTSVMEVTATDADDDVNTYNAAIAYTILSQDPELPDKNMFTINRNTGVISVVTTGLDRESFPTYTLVVQAADLQGEGLSTTATAVITVTDTNDNPPIFNPTTYKGQVPENEANVVITTLKVTDADAPNTPAWEAVYTILNDDGGQFVVTTNPVNNDGILKTAKGLDFEAKQQYILHVAVTNVVPFEVSLTTSTATVTVDVLDVNEAPIFVPPEKRVEVSEDFGVGQEITSYTAQEPDTFMEQKITYRIWRDTANWLEINPDTGAISTRAELDREDFEHVKNSTYTALIIATDNGSPVATGTGTLLLILSDVNDNAPIPEPRTIFFCERNPKPQVINIIDADLPPNTSPFTAELTHGASANWTIQYNDPTQESIILKPKMALEVGDYKINLKLMDNQNKDQVTTLEVSVCDCEGAAGVCRKAQPVEAGLQIPAILGILGGILALLILILLLLLFLRRRAVVKEPLLPPEDDTRDNVYYYDEEGGGEEDQDFDLSQLHRGLDARPEVTRNDVAPTLMSVPRYLPRPANPDEIGNFIDENLKAADTDPTAPPYDSLLVFDYEGSGSEAASLSSLNSSESDKDQDYDYLNEWGNRFKKLADMYGGGEDD
With B1 the “clonal survival of individualized hES cells” value (hES cells [10]) was “Neither laminin-521 nor E-Cadherin alone permitted efficient clonal survival”.
